From US20240415878A1, “Compositions and Methods for Modulating Mitochondrial Function” (Board of Regents, The University of Texas System, priority 2021, published 2024)

Test: HFD-fed WT mice treated with CPACC i.p.
Assay type: in vivo
Method: CPACC treatment enhances adipose browning and lowers whole body weight. Given the potent mMg^2+ uptake inhibiting properties and low toxicity of CPACC, we hypothesized that CPACC could mimic Mrs2^−/− cellular phenotype. WT hepatocytes isolated from over 12 months old mice were treated with 50 μM CPACC for 48 hours. Control and CPACC treated hepatocytes were stained with BODIPY and TMRE for intracellular tracing using confocal imaging. […] Next it was determined if CPACC treatment affects the mitochondrial oxygen consumption rate. Freshly isolated WT hepatocytes were treated with 5-25 μM concentrations of CPACC for 16 hours before measurement of oxygen consumption rate. […] Since it was observed an enhancement of basal OCR in CPACC treated hepatocytes, the extracellular acidification rate was measured in control and CPACC treated hepatocytes and found it to be higher in the CPACC condition indicating higher glycolytic activity (FIG. 11G). Having observed that pharmacologic blockade of Mrs2 by CPACC reduced lipid droplet size and enhanced mitochondrial function, it was asked whether in vivo administration of CPACC lowers body weight gain. 12 weeks HFD-fed WT mice were treated with CPACC (20 mg/kg) via intraperitoneal injection every three days over 6 weeks. […] Because it was observed browning/beiging in Mrs2^−/− iWAT, UCP1 expression by RT-qPCR was tested, confirming induction in the iWAT of CPACC treated mice.
Animal models. Wild-type (WT) and Mrs2^−/− (KO) C57BL/6J mice were housed and maintained in our animal breeding facility with prior approval and accordance with the Institutional Animal Care and Use Committee (IACUC). Mice were fed a Western Diet (WD; Research Diets D09100310), a standard Chow Diet (CD; Envigo 7012), or a High Fat Diet (HFD; Research Diets D12492). For most experiments, WT and KO mice were maintained on the WD or the CD starting at 12 weeks of age. With termination at 12 months. WT mice maintained on a HFD starting at 6 weeks were administered control (saline) or CPACC (20 mg/kg BW in saline) I.P. every 3 days starting after 6 weeks of maintained diet. Body weight, health, and food were measured regularly for all groups. […]
Plasma alanine transaminase activity and citrate measurements. Liver function and damage was determined by measuring alanine transaminase (ALT). The ALT activity in the plasma was determined using the Alanine Transaminase Activity Assay Kit (Abcam ab105134) following manufacturer's protocol. The plasma ALT levels over two different time points were obtained and corresponding ALT activity was determined by reading in a plate reader at 570 nm. […] Citrate levels were determined using the Citrate Assay Kit (Abcam ab83396) by reading in a plate reader at 570 nm following the manufacturer's protocol. […]

Q: Which “RT-qPCR analysis of WAT tissue (HIF-1α pathway)” value (HFD mice, 20 mg/kg i.p.) does the source give for `[NH2][Co]([NH2])([NH2])([NH2])([NH2])[Cl]` [CPACC, chloropentaammine cobalt (III) chloride] here?
A: The value was “transcriptional signature of HIF-1α activation”.

Q: What about the “UCP1 expression in iWAT by RT-qPCR” value (HFD-fed WT mice, 20 mg/kg i.p.) of the same compound?
A: The value was “induction”.

Q: What about the body weight gain (HFD-fed WT mice, 20 mg/kg i.p. every three days over 6 weeks) of the same compound?
A: Its body weight gain is “restricted body weight gain”.

Q: What about the “Plasma ALT levels” value (HFD-fed WT mice, 20 mg/kg i.p., versus control group) of the same compound?
A: Its value is “lower”.
